Patent US20240000927A1, “IMMUNOMODULATORY AGENT” (THE QUEEN'S UNIVERSITY OF BELFAST, priority 2020, published 2024)
pIC50: −log10 of the molar value.

How the values were obtained:
[1] = molecular target: T1, Toll-like receptor (TLR) 4 (Mus musculus, UniProt Q9QUK6); conditions: reported, Ii et al. 2006; cited from earlier work
T1 sequence (Q9QUK6 26-835): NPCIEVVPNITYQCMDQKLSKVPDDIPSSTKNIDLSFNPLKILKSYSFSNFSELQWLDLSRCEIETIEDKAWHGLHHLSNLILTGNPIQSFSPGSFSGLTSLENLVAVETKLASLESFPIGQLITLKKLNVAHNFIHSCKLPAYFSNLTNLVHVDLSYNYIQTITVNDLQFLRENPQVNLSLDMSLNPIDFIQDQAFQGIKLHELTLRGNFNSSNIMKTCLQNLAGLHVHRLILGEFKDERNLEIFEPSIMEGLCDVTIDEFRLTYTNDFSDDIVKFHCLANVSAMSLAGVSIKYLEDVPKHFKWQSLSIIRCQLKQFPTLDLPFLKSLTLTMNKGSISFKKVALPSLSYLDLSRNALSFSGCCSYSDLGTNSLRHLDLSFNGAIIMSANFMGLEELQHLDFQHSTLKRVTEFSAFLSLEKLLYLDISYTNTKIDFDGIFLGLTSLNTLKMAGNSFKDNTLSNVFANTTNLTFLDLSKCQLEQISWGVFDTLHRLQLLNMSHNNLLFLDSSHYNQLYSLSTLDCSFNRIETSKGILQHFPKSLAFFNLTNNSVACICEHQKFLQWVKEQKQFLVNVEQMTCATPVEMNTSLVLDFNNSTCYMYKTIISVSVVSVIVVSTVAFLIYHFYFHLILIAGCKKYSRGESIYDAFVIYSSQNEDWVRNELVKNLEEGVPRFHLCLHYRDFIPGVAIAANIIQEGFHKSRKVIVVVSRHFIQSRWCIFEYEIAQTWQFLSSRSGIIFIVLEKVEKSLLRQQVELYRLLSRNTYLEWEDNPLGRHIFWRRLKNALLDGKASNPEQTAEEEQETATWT

[2] = molecular target: T1, Toll-like receptor (TLR) 4; assay: TLR 4 inhibition assay with TAK-242 (nitrite production by macrophages); assay type: cell-based, murine; set-up: endogenous in cells; host or cells: RAW 264.7 murine macrophages; conditions: TAK-242 10 nM, 18 h, RAW 264.7
From the text: TAK-242 is a small molecule which is a specific inhibitor of Toll-like receptor (TLR) 4, which inhibits the production of pro-inflammatory mediators by binding to Cys747 in the intracellular domain of TLR4. This prevents interactions between TLR4 and its adaptor molecules Toll/IL-1 receptor domain containing adaptor protein (TIRAP) and Toll/IL-1 receptor domain-containing adaptor protein inducing interferon-β-related adaptor molecule (TRAM). Consequently, LPS-induced signal transduction is inhibited, including downstream signalling transduction that results in the production of pro-inflammatory cytokines (Matsunaga et al. 2011). […] RAW 264.7 were prepared as described in Example 3 and subsequently seeded at a density of 1×10^5 cells/well in two 96-well microtitre plates. S. cordifolia fractions (100 l) SCAF 0 and SCAF 5 (1-0.001 mg/ml) were added in triplicate to one of the plates. The positive control was 1 ng/ml LPS and the negative control was 100 μl DMEM medium. The remaining plate was arranged in an identical manner. However, the fractions SCAF 0 and SCAF 5 and positive (LPS 1 ng/ml) and negative (medium) all contained TAK-242 at a concentration 10 nM. Plates were incubated for 18 h in an incubator at 5% CO2 at 37° C. After incubation, nitrite concentrations were determined using the Griess reagent.

RAW 264.7 macrophages = assay: Nitrite concentration (Griess reaction) in macrophage culture medium; assay type: cell-based, murine; conditions: LPS 1 ng/ml, stated to be the same as extracts at 1 mg/ml
From the text: Induction of iNOS results in the endogenous production of nitric oxide (NO) by conversion of L-arginine to citrulline (Murad 1998). NO is a key facilitator of inflammatory responses, and is only produced by macrophages activated through the classical pathway (ligation of TLRs) (Mosser 2003). Due to the highly reactive nature of NO, its formation is commonly indirectly measured (i.e. by measuring nitrite (NO2-), one of two primary stable non-volatile breakdown products of NO).
Nitrite (NO2—) concentration in culture medium was measured using the Griess reaction method, in accordance with the protocol provided by the manufacturer (Life Technologies, Paisley). […] The concentration of NO2- was measured colourimetrically at λ550 nm using a Tecan Safire2 microplate reader.
A standard solution of 0.1M sodium nitrite (NaNO2) was used to make serial dilutions in the range of 100-1 μM to quantitate NO2- concentrations by means of a standard curve.
To determine the amount of produced NO2— produced, 50 μl of medium from each well of the 96-well microtitre plate was aspirated post incubation and transferred to a fresh 96-well microtiter plate to which a solution of 50 μl sulfanilic acid 1% (10 mg/ml) in 5% phosphoric acid was added and incubated for 10 minutes at room temperature. […] The concentration of NO2— was measured colourimetrically (λ550 nm) using a Tecan Safire2 microplate reader. […]

CCOC(=O)C1=CCCC[C@H]1S(=O)(=O)Nc1ccc(F)cc1Cl [TAK-242]
pIC50 [1]: 7.96 to 8.96

Lipopolysaccharide [LPS]
activation of macrophages (nitrite production) in the presence of TAK-242 [2]: inactivated | levels of NO2− (RAW 264.7 macrophages): 60 to 80 µmol/mL
